According to US20260007758A1, “SO[…]-2 RECEPTOR (SST2R) NON-PEPTIDE DRUG CONJUGATES AND USES THEREOF” (Crinetics Pharmaceuticals, Inc., priority 2024, published 2026):

Assays:
Format in all cases: cell-based
SST2 = target: T1, SST2 (Homo sapiens, UniProt P30874); experiment: PathHunter CHO-K1 SST2 Internalization Assay; settings: PathHunter CHO-K1 SST2 cells; 90 min at 37 C; luminescence; read-out: Internalization EC50
T1 construct: host or cells: PathHunter CHO-K1 SST2 cells
In short: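 Four-parameter nonlinear fits of background-corrected luminescence (duplicate means) gave IC50s. NDCs were serially diluted 1:3 over 11 points from a 10 uM final top concentration and incubated 90 min at 37 C with human SST2 CHO-K1 cells plated 48 h earlier at 2500/well. Beta-Glo read-out developed 60 min at RT.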

[1] = tested on: NCI-H524 human small cell lung cancer cells; experiment: H524 assay: inhibition of cell proliferation (CellTiter Glo); settings: 2 h treatment, washout, additional 70 h incubation
In short: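 Proliferation was measured by CellTiter Glo 70 h after a washout that followed a 2 h pulse of NDC. Doses were an 11-point, two-fold dilution series from 1 uM. IC50 was fitted with a four-parameter model to luminescence-based % inhibition relative to control cells.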

[2] = target: T2, human somatostatin receptor subtype 2 (Homo sapiens, UniProt P30874); experiment: Functional assay for SSTR2 agonists (HTRF cAMP); settings: CHO-K1 cells stably expressing human SST2; NKH477-stimulated cAMP; 20 min at 37 C; read-out: hSST2 cAMP Avg EC50
T2 construct: expressed in transfected cells
In short: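 Agonist activity read as fall in intracellular cAMP: HTRF 665/620 nm ratio regressed to a cAMP standard curve, EC50 fitted. Stable human SSTR2 CHO-K1 cells exposed 20 min at 37 °C to compound, final concentrations typically 0-10,000 nM.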

T2 sequence (P30874 whole entry): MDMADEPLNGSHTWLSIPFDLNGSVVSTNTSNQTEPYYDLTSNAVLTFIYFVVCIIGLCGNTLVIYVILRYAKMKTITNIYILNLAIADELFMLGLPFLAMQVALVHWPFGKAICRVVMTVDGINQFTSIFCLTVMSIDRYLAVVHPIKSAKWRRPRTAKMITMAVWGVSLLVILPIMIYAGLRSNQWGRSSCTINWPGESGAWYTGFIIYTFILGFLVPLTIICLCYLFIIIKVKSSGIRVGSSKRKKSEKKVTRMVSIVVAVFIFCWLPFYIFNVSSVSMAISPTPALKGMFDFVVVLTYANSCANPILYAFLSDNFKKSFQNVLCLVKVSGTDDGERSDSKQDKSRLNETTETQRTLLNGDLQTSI
T1 sequence (P30874 whole entry): as above

For CC[C@H](C)[C@@H]([C@@H](CC(=O)N1CCC[C@H]1[C@H](OC)[C@@H](C)C(=O)N[C@H](C)[C@@H](O)c1ccccc1)OC)N(C)C(=O)[C@@H](NC(=O)[C@H](C(C)C)N(C)C(=O)OCc1ccc(NC(=O)[C@H](CCCNC(N)=O)NC(=O)[C@@H](NC(=O)c2cc(NCCC(=O)NCCNc3ncc(-c4cc(C)cc(F)c4)c(N4CCC(N)CC4)c3-c3nc4ccc(Cl)cc4[nH]3)cc(C(=O)NCC(=O)O)c2)C(C)C)cc1)C(C)C [Compound 157], the EC50 (SST2) was 20 nM, the EC50 [1] was 95 nM and the EC50 [2] was 0.45 nM.

CC[C@H](C)[C@@H]([C@@H](CC(=O)N1CCC[C@H]1[C@H](OC)[C@@H](C)C(=O)N[C@H](C)[C@@H](O)c1ccccc1)OC)N(C)C(=O)[C@@H](NC(=O)[C@H](C(C)C)N(C)C(=O)OCc1ccc(NC(=O)[C@H](CCCNC(N)=O)NC(=O)[C@@H](NC(=O)[C@H](CCCO)NC(=O)CCOCCC(=O)NCCNc2ncc(-c3cc(C)cc(F)c3)c(N3CCC(N)CC3)c2-c2nc3cc(Cl)ccc3[nH]2)C(C)C)c(O[C@@H]2O[C@H](C(=O)NCC(=O)O)[C@@H](O)[C@H](O)[C@H]2O)c1)C(C)C [Compound 219] showed an EC50 (SST2) of 2.7 nM, an EC50 [1] of 7.5 nM and an EC50 [2] of 0.099 nM.

CC[C@H](C)[C@@H]([C@@H](CC(=O)N1CCC[C@H]1[C@H](OC)[C@@H](C)C(=O)N[C@H](C)[C@@H](O)c1ccccc1)OC)N(C)C(=O)[C@@H](NC(=O)[C@H](C(C)C)N(C)C(=O)OCc1ccc(NC(=O)[C@H](CCCNC(N)=O)NC(=O)[C@@H](NC(=O)CCOCCC(=O)NCCNc2ncc(-c3cc(C)cc(F)c3)c(N3CCC(N)CC3)c2-c2cc3ccc(Cl)cc3[nH]2)C(C)C)c(O[C@@H]2C[C@H](C(=O)NCCN)[C@@H](O)[C@H](O)[C@H]2O)c1)C(C)C [Compound 43] gave an EC50 (SST2) of 6.6 nM, an EC50 [1] of 1.8 nM and an EC50 [2] of 0.24 nM.

With CC[C@H](C)[C@@H]([C@@H](CC(=O)N1CCCC1[C@H](OC)[C@@H](C)C(=O)N[C@H](C)[C@@H](O)c1ccccc1)OC)N(C)C(=O)[C@@H](NC(=O)[C@H](C(C)C)N(C)C(=O)OCc1ccc(O[C@@H]2O[C@H](C(=O)O)[C@@H](O)[C@H](O)[C@H]2O)c(NC(=O)[C@H](C)NC(=O)[C@@H](NC(=O)CCOCCC(=O)NCCNc2ncc(-c3cc(C)cc(F)c3)c(N3CCC(N)CC3)c2-c2nc3ccc(Cl)cc3[nH]2)C(C)C)c1)C(C)C (stereo partly drawn) [Compound 249] the EC50 (SST2) was 4.5 nM, the EC50 [1] was 9.8 nM and the EC50 [2] was 0.086 nM.

Work on CC[C@H](C)[C@@H]([C@@H](CC(=O)N1CCC[C@H]1[C@H](OC)[C@@H](C)C(=O)N[C@H](C)[C@@H](O)c1ccccc1)OC)N(C)C(=O)[C@@H](NC(=O)[C@H](C(C)C)N(C)C(=O)OCc1ccc(NC(=O)[C@H](CCCNC(N)=O)NC(=O)[C@@H](NC(=O)c2cc(NC(=O)CCCC(=O)N(C)CC(=O)NCCNc3ncc(-c4cc(C)cc(F)c4)c(N4CCC(N)CC4)c3-c3nc4ccc(Cl)cc4[nH]3)cc(C(=O)NC[C@@H](N)C(=O)O)c2)C(C)C)cc1)C(C)C [Compound 171] yielded an EC50 (SST2) of 8.3 nM, an EC50 [1] of 14 nM and an EC50 [2] of 0.33 nM.

In the case of CC[C@H](C)[C@@H]([C@@H](CC(=O)N1CCC[C@H]1[C@H](OC)[C@@H](C)C(=O)N[C@H](C)[C@@H](O)c1ccccc1)OC)N(C)C(=O)[C@@H](NC(=O)[C@H](C(C)C)N(C)C(=O)OCc1ccc(NC(=O)[C@H](CCCNC(N)=O)NC(=O)C2(NC(=O)CCOCCC(=O)NCCNc3ncc(-c4cc(C)cc(F)c4)c(N4CCC(N)CC4)c3-c3nc4ccc(Cl)cc4[nH]3)CCC2)c(O[C@H]2O[C@H](C(=O)NCC(=O)O)[C@@H](O)[C@H](O)[C@H]2O)c1)C(C)C [Compound 210], the EC50 (SST2) is reported as 2.8 nM, the EC50 [1] is reported as 2300 nM and the EC50 [2] is reported as 0.051 nM.

In the case of CC[C@H](C)[C@@H]([C@@H](CC(=O)N1CCC[C@H]1[C@H](OC)[C@@H](C)C(=O)N[C@H](C)[C@@H](O)c1ccccc1)OC)N(C)C(=O)[C@@H](NC(=O)[C@H](C(C)C)N(C)C(=O)OCc1ccc(NC(=O)[C@H](C)NC(=O)[C@@H](NC(=O)CCOCCC(=O)NCCNc2ncc(-c3cc(C)cc(F)c3)c(N3CCC(N)CC3)c2-c2nc3ccc(Cl)cc3[nH]2)C(C)C)c(O[C@@H]2O[C@H](C(=O)NCC(=O)O)[C@@H](O)[C@H](O)[C@H]2O)c1)C(C)C [Compound 33], the EC50 (SST2) is reported as 2.5 nM, the EC50 [1] is reported as 7 nM and the EC50 [2] is reported as 0.15 nM.

Compound CC[C@H](C)[C@@H]([C@@H](CC(=O)N1CCC[C@H]1[C@H](OC)[C@@H](C)C(=O)N[C@H](C)[C@@H](O)c1ccccc1)OC)N(C)C(=O)[C@@H](NC(=O)[C@H](C(C)C)N(C)C(=O)OCc1ccc(NC(=O)[C@H](C)NC(=O)[C@@H](NC(=O)CCOCCC(=O)NCCNc2ncc(-c3cc(F)cc(OC)c3)c(N3CCC(N)CC3)c2-c2nc3ccc(Cl)cc3[nH]2)C(C)C)c(O[C@@H]2O[C@H](C(=O)O)[C@@H](O)[C@H](O)[C@H]2O)c1)C(C)C [Compound 139] has an EC50 (SST2) of 4.9 nM, an EC50 [1] of 30 nM and an EC50 [2] of 0.1 nM.

CC[C@H](C)[C@@H]([C@@H](CC(=O)N1CCC[C@H]1[C@H](OC)[C@@H](C)C(=O)N[C@H](C)[C@@H](O)c1ccccc1)OC)N(C)C(=O)[C@@H](NC(=O)[C@H](C(C)C)N(C)C(=O)OCc1ccc(NC(=O)[C@H](C)NC(=O)[C@@H](NC(=O)CCOCCC(=O)NCCNc2ncc(-c3cc(C)cc(F)c3)c(N3CCC(N)CC3)c2-c2nc3cc(F)c(F)cc3[nH]2)C(C)C)c(O[C@@H]2O[C@H](C(=O)O)[C@@H](O)[C@H](O)[C@H]2O)c1)C(C)C [Compound 108] was tested, and the EC50 (SST2) was 8.2 nM, the EC50 [1] was 52 nM and the EC50 [2] was 0.18 nM.

CC[C@H](C)[C@@H]([C@@H](CC(=O)N1CCC[C@H]1[C@H](OC)[C@@H](C)C(=O)N[C@H](C)[C@@H](O)c1ccccc1)OC)N(C)C(=O)[C@@H](NC(=O)[C@H](C(C)C)N(C)C(=O)OCc1ccc(NC(=O)[C@H](CCCNC(N)=O)NC(=O)[C@@H](NC(=O)CCCC(=O)N(C)CC(=O)NCCNc2ncc(-c3cc(C)cc(F)c3)c(N3CCC(N)CC3)c2-c2nc3ccc(Cl)cc3[nH]2)C(C)C)c(O[C@@H]2O[C@H](C(=O)O)[C@@H](O)[C@H](O)[C@H]2O)c1)C(C)C [Compound 56] was tested, and the EC50 (SST2) was 68 nM, the EC50 [1] was 26 nM and the EC50 [2] was 0.81 nM.

In the case of CC[C@H](C)[C@@H]([C@@H](CC(=O)N1CCC[C@H]1[C@H](OC)[C@@H](C)C(=O)N[C@H](C)[C@@H](O)c1ccccc1)OC)N(C)C(=O)[C@@H](NC(=O)[C@H](C(C)C)N(C)C(=O)OCc1ccc(NC(=O)[C@H](CCCNC(N)=O)NC(=O)[C@@H](NC(=O)CCOCCOCCOCCOCCC(=O)NCCNc2ncc(-c3cc(C)cc(F)c3)c(N3CCC(N)CC3)c2-c2nc3ccc(Cl)cc3[nH]2)C(C)C)c(OCC(=O)O)c1)C(C)C [Compound 19], the EC50 (SST2) is reported as 8.1 nM, the EC50 [1] is reported as 28 nM and the EC50 [2] is reported as 0.07 nM.

CC[C@H](C)[C@@H]([C@@H](CC(=O)N1CCC[C@H]1[C@H](OC)[C@@H](C)C(=O)N[C@H](C)[C@@H](O)c1ccccc1)OC)N(C)C(=O)[C@@H](NC(=O)[C@H](C(C)C)N(C)C(=O)OCc1ccc(NC(=O)[C@H](CCCNC(N)=O)NC(=O)[C@@H](NC(=O)[C@H](CCC(=O)O)NC(=O)CCOCCC(=O)NCCNc2ncc(-c3cc(C)cc(F)c3)c(N3CCC(N)CC3)c2-c2nc3cc(F)cc(OC)c3[nH]2)C(C)C)cc1C(=O)NCCN)C(C)C [Compound 79] gave an EC50 (SST2) of 5.1 nM, an EC50 [1] of 7.7 nM and an EC50 [2] of 0.12 nM.

With CC[C@H](C)[C@@H]([C@@H](CC(=O)N1CCC[C@H]1[C@H](OC)[C@@H](C)C(=O)N[C@H](C)[C@@H](O)c1ccccc1)OC)N(C)C(=O)[C@@H](NC(=O)[C@H](C(C)C)N(C)C(=O)OCc1ccc(NC(=O)[C@H](CCCNC(N)=O)NC(=O)[C@@H](NC(=O)c2cc(NC(=O)CCOCCC(=O)N(C)CC(=O)NCCNc3ncc(-c4cc(C)cc(F)c4)c(N4CCC(N)CC4)c3-c3nc4ccc(Cl)cc4[nH]3)cc(C(=O)NC[C@@H](O)C(=O)O)c2)C(C)C)cc1)C(C)C [Compound 244] the EC50 (SST2) was 4 nM, the EC50 [1] was 55 nM and the EC50 [2] was 0.26 nM.

CC[C@H](C)[C@@H]([C@@H](CC(=O)N1CCC[C@H]1[C@H](OC)[C@@H](C)C(=O)N[C@H](C)[C@@H](O)c1ccccc1)OC)N(C)C(=O)[C@@H](NC(=O)C(C(C)C)N(C)C(=O)OCc1ccc(NC(=O)[C@H](CCCNC(N)=O)NC(=O)[C@@H](NC(=O)CCOCCC(=O)NCCNc2ncc(-c3cc(C)cc(F)c3)c(N3CCC(N)CC3)c2-c2nc3ccc(Cl)cc3[nH]2)C(C)C)c(O[C@@H]2O[C@H](C(=O)N3CCN(C)CC3)[C@@H](O)[C@H](O)[C@H]2O)c1)C(C)C (stereo partly drawn) [Compound 226] showed an EC50 (SST2) of 9.3 nM, an EC50 [1] of 4.3 nM and an EC50 [2] of 0.28 nM.

CC[C@H](C)[C@@H]([C@@H](CC(=O)N1CCC[C@H]1[C@H](OC)[C@@H](C)C(=O)N[C@H](C)[C@@H](O)c1ccccc1)OC)N(C)C(=O)[C@@H](NC(=O)[C@H](C(C)C)N(C)C(=O)OCc1ccc(NC(=O)[C@H](CCCNC(N)=O)NC(=O)[C@@H](NC(=O)CCOCCOCCOCCOCCNc2ncc(C(=O)NCCNc3ncc(-c4cc(C)cc(F)c4)c(N4CCC(N)CC4)c3-c3nc4ccc(Cl)cc4[nH]3)cn2)C(C)C)cc1)C(C)C [Compound 180] was tested, and the EC50 (SST2) was 16 nM, the EC50 [1] was 680 nM and the EC50 [2] was 0.52 nM.

CC[C@H](C)[C@@H]([C@@H](CC(=O)N1CCC[C@H]1[C@H](OC)[C@@H](C)C(=O)N[C@H](C)[C@@H](O)c1ccccc1)OC)N(C)C(=O)[C@@H](NC(=O)[C@H](C(C)C)N(C)C(=O)OCc1ccc(NC(=O)[C@H](CCCNC(N)=O)NC(=O)[C@@H](NC(=O)CCOCCOCCC(=O)NCCNc2ncc(-c3cc(C)cc(F)c3)c(N3CCC(N)CC3)c2-c2nc3ccc(Cl)cc3[nH]2)C(C)C)cc1C(=O)NCCNC(=O)CCOCCOCCOCCOCCC(=O)O)C(C)C [Compound 74] showed an EC50 (SST2) of 4.3 nM, an EC50 [1] of 17 nM and an EC50 [2] of 0.19 nM.
